In patent US4310590A (priority 1979, dated 1982):
In brackets after ≈: the same amount, converted by molar mass.

Tests used:
[1] = test system: Piricularia oryzae; assay: whole plant or invertebrate; format: in vivo
[2] = test system: Botrytis cinerea; assay: whole plant or invertebrate; format: in vivo; details: Botrytis cinerea; 300 ppm; read-out: Disease Control Level, BOT
[3] = test system: A. niger; assay: Serial Dilution Test (Broth Titer Test), antifungal, A. niger; format: cell-based, Aspergillus niger; details: Aspergillus niger, in vitro serial dilution test, read-out: SDT, MIC
Experimental: (§1) Antibacterial and antifungal activity were evaluated by the Serial Dilution Test (Broth Titer Test) wherein a series of broths containing varying dilutions of a test compound and an organism are halved starting with 1:1,000. The values shown represent the maximum dilution in parts per million at which the compound under evaluation renders complete control of the organism. Pseudomonas aeruginosa (P), Staphylococcus aureus (S), and Escherichia coli (E) were the bacterial organisms employed in this test, and the fungi employed were Aspergillus niger (A) and Rhizopus stolonifer (R).
(§2) ^a In vitro serial dilution test (SDT), minimum inhibitory
(§3) concentrations (MIC) against E = E. coli, P = Ps. aeruginosa, S =
(§4) Staphylococcus aureus, A = A. niger, and R = Rhizopus stolonifer are give
(§5) in parts per million of a biocide.

[4] = test system: Plasmopora viticola; assay: whole plant or invertebrate; format: in vivo; details: 300 ppm; read-out: Disease Control Level, GDM
[5] = test system: E. coli; assay: Serial Dilution Test (Broth Titer Test), antibacterial, E. coli; format: cell-based, Escherichia coli; details: Escherichia coli, read-out: SDT, MIC
Experimental: as §1, §2, §3, §4, §5

[6] = test system: Puccinia graminis f. sp. tritici; assay: whole plant or invertebrate; format: in vivo, Puccinia graminis f. sp. tritici race 15B-2; details: Puccinia graminis, read-out: Disease Control Level, WSR
[7] = test system: Staphylococcus aureus; assay: Serial Dilution Test (Broth Titer Test), antibacterial, Staphylococcus aureus; format: cell-based; details: Staphylococcus aureus, read-out: SDT, MIC
Experimental: as §1, §2, §3, §4, §5

[8] = test system: Erysiphe polygoni; assay: whole plant or invertebrate; format: in vivo; details: read-out: Disease Control Level, BPM
[9] = test system: Ps. aeruginosa; assay: Serial Dilution Test (Broth Titer Test), antibacterial, Ps. aeruginosa; format: cell-based, Pseudomonas aeruginosa; details: Pseudomonas aeruginosa, read-out: SDT, MIC
Experimental: as §1, §2, §3, §4, §5

[10] = test system: Phytophthora infestans; assay: whole plant or invertebrate; format: in vivo; details: Phytophthora infestans, in Solanum lycopersicum, read-out: Disease Control Level, TLB
[11] = test system: Helminthosporium teres; assay: whole plant or invertebrate; format: in vivo; details: Pyrenophora teres, in Hordeum vulgare; 300 ppm; read-out: Disease Control Level, BH
[12] = test system: Rhizopus stolonifer; assay: Serial Dilution Test (Broth Titer Test), antifungal, Rhizopus stolonifer; format: cell-based; details: in vitro serial dilution test; R = Rhizopus stolonifer; read-out: SDT, MIC
Experimental: as §1, §2, §3, §4, §5

[13] = Pyricularia oryzae, read-out: Disease Control Level, RB

Structure (SMILES) | Disease Control Level, RB ([1]; 150 ppm) | pest or weed control at 38 ppm [1, 13] | pest or weed control at 75 ppm [1, 13] | pest or weed control at 300 ppm [1, 13] | pest or weed control at 300 ppm [2] | MIC [3] | pest or weed control at 300 ppm [4] | MIC [5] | pest or weed control at 38 ppm [6] | pest or weed control at 75 ppm [6] | pest or weed control at 150 ppm [6] | pest or weed control at 300 ppm [6] | MIC [7] | pest or weed control at 300 ppm [8] | MIC [9] | pest or weed control at 300 ppm [10] | pest or weed control at 300 ppm [11] | MIC [12]
O=c1cc(N2CCCCC2)sn1CCc1ccccc1 [Example 14, 5-Piperidino-2-phenethyl-4-isothiazolin-3-one] | A/E | 50% | 97 to 100% | 97 to 100% | 50% | 250 µg/mL (≈ 867 µM) | 50% | 500 µg/mL (≈ 1730 µM) | 50% | 50% | 50% | 97 to 100% | 500 µg/mL (≈ 1730 µM) | 50% | 500 µg/mL (≈ 1730 µM) | 50% | 50% | 125 µg/mL (≈ 433 µM)
Cc1c(SC(=S)N(C)C)sn(C2CCCCC2)c1=O [Example 11] |  |  |  | 50% | 50% | 500 µg/mL (≈ 1580 µM) | 50% | 500 µg/mL (≈ 1580 µM) |  |  |  | 70 to 89% | 500 µg/mL (≈ 1580 µM) | 50% | 500 µg/mL (≈ 1580 µM) | 50% | 50% | 250 µg/mL (≈ 790 µM)
